# Results published in article PMC2662877, “A novel method for screening the glutathione transferase inhibitors” (BMC Biochemistry, 2009).
# No end group written: not given here.
# Key:
# GST [1] = biological target: T1, GST (Schistosoma japonicum, UniProt P08515); test: biochemical; type: biochemical; conditions: inhibitor 1 μM, DCNB 1 mM, glutathione 1 mM, 25°C; for Specific GST activity: mean ± SD of triplicate, control 4.51 ± 0.02
# T1 construct: purchased Sigma-Aldrich
# GST [2] = biological target: T1, GST; test: biochemical; type: biochemical; conditions: for Specific GST activity: mean ± SD of triplicate, control 2.80 ± 0.01; for order of inhibition efficiencies: with the use of CDNB or DCNB as the substrates, inhibitors 1 μM; for inhibition of GST activity, in words: control peptides, CDNB or DCNB as substrates
# Description: Figure 3 Effects of F1 and F2 peptides on the activity of GST (μmol/mg/min). The activity was measured by monitoring the GST activity with different peptide concentrations, 1 mM glutathione (GSH) and 1 mM CDNB in 100 mM potassium phosphate buffer (pH6.5) at 25°C.
# (§1) The peptide concentration resulting in 50% inhibition (IC50) was determined from a plot of remaining activity versus peptide concentration. Protein concentration was measured according to the Lowry method. Enzyme inhibitory kinetic studies were carried out using various concentrations of glutathione and CDNB and different concentrations of synthetic peptides (0.8, 1.6, 3.2 μM).
# GST [3] = conditions: first-generation GST inhibitors; no reference given; cited from earlier work
# Text: (§2) The development of resistance to anticancer agents is a primary concern in cancer chemotherapy.
# [4] = test system: cancer cell lines with increased GST expression; conditions: ref [25]; cited from earlier work
# Text: as §2
# [5] = binding of synthesized peptides to glutathione Sepharose 4B beads; conditions: for binding to glutathione Sepharose 4B beads, in words: control peptides lacking glutathione-interacting residues
# Description: The binding characteristics of selected peptides to glutathione were determined according to the analysis of binding of synthesized peptides to the glutathione Sepharose 4B beads. The amount of glutathione in the glutathione Sepharose 4B beads was estimated according to the assumption (according to the manufacturere's information) that there are about 200–400 μmol glutathione/g dried beads. An average value of 300 μmol glutathione/g dried beads was used to calculate the amount of glutathione in the glutathione Sepharose 4B beads. In our experiments, appropriate amount of wet glutathione Sepharose 4B beads (equal to 1 mg dry beads) was added to a 1.5 ml Eppendorf tube, and different amounts of synthesized peptides were added into the tube. After binding for 10 min at 37°C, the binding complexes were separated by centrifugation (12,000 × g for 10 min) and concentrations of bound and free peptides were determined by using the Lowry method. Scatchard analysis was used to determine the Kd and Bmax values. Bmax means the maximum binding sites of synthesized peptide on glutathione Speharose 4B beads (μmol peptide/μmol glutathione). Kd is a dissociation constant (pM). Thus, a low Kd value indicates a high affinity.
# GST [6] = biological target: T1, GST; test: biochemical; type: biochemical; conditions: for effect on Vmax and Km, in words: changing glutathione and peptide concentrations
# Description: To obtain information on the nature of the inhibition by F1 and F2 peptides, GST activity was measured with variable concentrations of glutathione. Here, we applied a new model in describing enzyme inhibitor (Fig. 4).
# The Lineweaver-Burk plot for glutathione as the variable peptide concentration was applied to determine the types of inhibition caused by F1 and F2 peptides. The plot provides a useful graphical method for analysis of the Michaelis-Menten equation. The effects of the peptide on GST-catalyzed reaction kinetics were determined by analysis of apparent Vmax, inhibitor constant Ki and [I]/Ki values.
# Figure 5 Lineweaver-Burk plot of the GST activity with varying glutathione (GSH) concentrations. A): The activity was measured with 1 mM CDNB, and different concentrations of GSH, and the F1 peptide. B): The activity was measured with 1 mM CDNB, and different concentrations of GSH, and the F2 peptide.
# as §1
# [7] = control 100%, % sign missing in F1 cell
# [8] = inhibitor 1 μM, CDNB 1 mM, glutathione 1 mM, 25°C, control 100%
# [9] = inhibitor 1 μM, CDNB 1 mM, glutathione 1 mM, 25°C
# [10] = after elution with elution buffer
# [11] = before elution, ratio of peptide concentrations after and before binding
# T1 sequence (P08515 whole entry): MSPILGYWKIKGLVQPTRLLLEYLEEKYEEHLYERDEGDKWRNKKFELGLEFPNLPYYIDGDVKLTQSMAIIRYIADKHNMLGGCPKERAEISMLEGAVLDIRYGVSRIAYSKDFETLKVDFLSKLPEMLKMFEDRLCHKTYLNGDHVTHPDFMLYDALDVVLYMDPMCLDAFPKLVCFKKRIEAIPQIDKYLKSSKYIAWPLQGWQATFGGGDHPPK
compound,measurement,setting,value
Nc1c(S(=O)(=O)O)cc(Nc2ccc(Nc3nc(Cl)nc(Nc4ccccc4S(=O)(=O)O)n3)c(S(=O)(=O)O)c2)c2c1C(=O)c1ccccc1C2=O [cibacron blue],remaining activity at 1 µM,GST [1]; [7],21.3%
same,Specific GST activity,GST [1],0.96 ± 0.01 units/mg
same,remaining activity at 1 µM,GST [2]; [8],18.3%
same,Specific GST activity,GST [2]; [9],0.51 ± 0.01 units/mg
same,order of inhibition efficiencies,GST [2],tannic acid > cibacron blue > F2 peptide > hematin > F1 peptide > ethacrynic acid
C=C(CC)C(=O)c1ccc(OCC(=O)O)c(Cl)c1Cl [ethacrynic acid],outcome in clinical trials,GST [3],unsuccessful in clinical trials
same,Specific GST activity,GST [1],3.66 ± 0.02 units/mg
same,Specific GST activity,GST [2]; [9],1.54 ± 0.01 units/mg
C=CC1=C(C)c2cc3[n-]c(cc4[n-]c(cc5nc(cc1n2)C(C)=C5C=C)c(C)c4CCC(=O)O)c(CCC(=O)O)c3C.O.[Fe+2] [hematin],"GST activity remaining, % of control",GST [1]; [7],42.1%
same,Specific GST activity,GST [1],1.90 ± 0.02 units/mg
same,"GST activity remaining, % of control",GST [2]; [8],35.2%
same,Specific GST activity,GST [2]; [9],0.99 ± 0.01 units/mg
same,order of inhibition efficiencies,GST [2],tannic acid > cibacron blue > F2 peptide > hematin > F1 peptide > ethacrynic acid
C=C[C@H]1C[N@@]2CC[C@H]1C[C@H]2[C@H](O)c1ccnc2ccc(OC)cc12 [quinine],reversal of resistance to melphalan and doxorubicin,[4],reported to reverse the resistance to melphalan and doxorubicin
"GKIKGV [F3 peptide, control peptide F3, lacking Tyr6, Trp7 and Leu12]",Binding efficiency,[5]; [10],1.2%
same,Binding efficiency,[5]; [11],1.2%
same,"binding to glutathione Sepharose 4B beads, in words",[5],could not bind efficiently
same,"inhibition of GST activity, in words",GST [2],could not find any significant inhibition of the GST activity
GYWKIKGLV [F1 peptide],IC50,GST [2],800 nM
same,Ki,"GST [6]; F1 peptide 0.8 μM, noncompetitive",4000 nM
same,Ki,"GST [6]; F1 peptide 1.6 μM, noncompetitive",4570 nM
same,Ki,"GST [6]; F1 peptide 3.2 μM, noncompetitive",5820 nM
same,"effect on Vmax and Km, in words",GST [6],Vmax decreased while Km remained unchanged
"KWNKFELGLEFPL [F4 peptide, control peptide F4, lacking Arg41, Lys44 and Asn53 residues]",Binding efficiency,[5]; [10],2.5%
same,Binding efficiency,[5]; [11],2.6%
same,"binding to glutathione Sepharose 4B beads, in words",[5],could not bind efficiently
same,"inhibition of GST activity, in words",GST [2],could not find any significant inhibition of the GST activity
KWRNKKFELGLEFPNL [F2 peptide],IC50,GST [2],600 nM
same,Ki,"GST [6]; F2 peptide 0.8 μM, competitive",1530 nM
same,Ki,"GST [6]; F2 peptide 1.6 μM, competitive",1600 nM
same,Ki,"GST [6]; F2 peptide 3.2 μM, competitive",2420 nM
same,"effect on Vmax and Km, in words",GST [6],Km decreased while Vmax remained unchanged
tannic acid,"GST activity remaining, % of control",GST [1]; [7],10.9%
same,Specific GST activity,GST [1],0.49 ± 0.01 units/mg
same,"GST activity remaining, % of control",GST [2]; [8],5.6%
same,Specific GST activity,GST [2]; [9],0.16 ± 0.01 units/mg
same,order of inhibition efficiencies,GST [2],tannic acid > cibacron blue > F2 peptide > hematin > F1 peptide > ethacrynic acid
